Reference: patent publication US11717508B2, “Compounds, compositions, and methods for inhibiting bacterial growth” (priority 2016, dated 2023)
Several values for one entry are separate records, joined by “and”; a condition that tells them apart may be missing. Equal values may be shown once. Read-outs that look alike come from different tables or passages of the source.

Test system: CDC1551(ΔdosR) mutant
Type: cell-based
Settings: for log2 Fold change / DosR DMSO/DosR HC103A Fold change: DosR mutant; for Counts per million (CPM) DosR_HC103A1 / Counts per million (CPM) DosR_HC103A2 / Counts per million (CPM): DosR mutant treated with HC103A; for Counts per million (CPM) DosR_HC103A1: replicate 1; for Counts per million (CPM) DosR_HC103A2: replicate 2; for Counts per million (CPM): replicates 1, 2
[1] = gene MT1608 (Rv1557, mmpL6), HC103A compared to DMSO, upregulated
[2] = gene MT1690 Rv1652 argC, HC103A vs DMSO
[3] = gene MT1692 Rv1654 argB, HC103A vs DMSO
[4] = gene MT1694 Rv1656 argF, HC103A vs DMSO
[5] = gene MT2466, HC103A compared to DMSO, upregulated
[6] = gene MT2467, HC103A compared to DMSO, upregulated
[7] = gene MT3110 (Rv3026c), HC103A compared to DMSO, upregulated
[8] = gene MT3134 Rv3049c, HC103A vs DMSO
[9] = gene MT3249 (Rv3160c), HC103A compared to DMSO, upregulated
[10] = gene MT3250 (Rv3161c), HC103A compared to DMSO, upregulated
[11] = gene MT3591 (Rv3487c, lipF), HC103A compared to DMSO, upregulated
[12] = gene MT3933 (Rv3825c, pks2), HC103A compared to DMSO, upregulated

## O=C(Nc1cccc(O)c1)c1cccc(NC(=O)c2cccs2)c1 [HC103A, N-[3-[(3 hydroxyphenyl)carbamoyl]phenyl]thiophene-2-carboxamide]
Gene MT1430 Rv1386 PE, HC103A vs DMSO
  log2 Fold change: −1.069
Gene MT1608 (Rv1557, mmpL6)
  Counts per million (CPM) DosR_HC103A1: 351.7 CPM
  Counts per million (CPM) DosR_HC103A2: 540 CPM
[1]
  DosR DMSO/DosR HC103A Fold change: 6.869
  log2 Fold change: 2.78
Gene MT1690 Rv1652 argC
  Counts per million (CPM): 130.6 CPM and 56.84 CPM
[2]
  DosR DMSO/DosR HC103A Fold change: 0.4979
  log2 Fold change: −1.006
Gene MT1691
  Counts per million (CPM): 81.47 CPM and 33.33 CPM
Gene MT1691, HC103A vs DMSO
  DosR DMSO/DosR HC103A Fold change: 0.4846
  log2 Fold change: −1.045
Gene MT1692 Rv1654 argB
  Counts per million (CPM): 128.8 CPM and 55.27 CPM
[3]
  DosR DMSO/DosR HC103A Fold change: 0.4965
  log2 Fold change: −1.01
Gene MT1694 Rv1656 argF
  Counts per million (CPM): 79.75 CPM and 39.53 CPM
[4]
  DosR DMSO/DosR HC103A Fold change: 0.4259
  log2 Fold change: −1.231
Gene MT2466
  Counts per million (CPM) DosR_HC103A1: 356.4 CPM
  Counts per million (CPM) DosR_HC103A2: 182.6 CPM
[5]
  DosR DMSO/DosR HC103A Fold change: 2.643
  log2 Fold change: 1.402
Gene MT2467
  Counts per million (CPM) DosR_HC103A1: 57.69 CPM
  Counts per million (CPM) DosR_HC103A2: 12.39 CPM
[6]
  DosR DMSO/DosR HC103A Fold change: 2.468
  log2 Fold change: 1.303
Gene MT3110 (Rv3026c)
  Counts per million (CPM) DosR_HC103A1: 44.13 CPM
  Counts per million (CPM) DosR_HC103A2: 30.13 CPM
[7]
  DosR DMSO/DosR HC103A Fold change: 2.016
  log2 Fold change: 1.012
Gene MT3134 Rv3049c
  Counts per million (CPM): 1,202.50 CPM and 892.7 CPM
[8]
  DosR DMSO/DosR HC103A Fold change: 0.4226
  log2 Fold change: −1.243
Gene MT3249 (Rv3160c)
  Counts per million (CPM) DosR_HC103A1: 172.6 CPM
[9]
  DosR DMSO/DosR HC103A Fold change: 2.261
  log2 Fold change: 1.177
Gene MT3250 (Rv3161c)
  Counts per million (CPM) DosR_HC103A1: 561.8 CPM
  Counts per million (CPM) DosR_HC103A2: 555 CPM
[10]
  DosR DMSO/DosR HC103A Fold change: 2.364
  log2 Fold change: 1.241
Gene MT3573.12
  Counts per million (CPM): 281 CPM and 281.6 CPM
Gene MT3573.12, HC103A vs DMSO
  DosR DMSO/DosR HC103A Fold change: 0.4221
  log2 Fold change: −1.244
Gene MT3591 (Rv3487c, lipF)
  Counts per million (CPM) DosR_HC103A1: 185.8 CPM
  Counts per million (CPM) DosR_HC103A2: 63.03 CPM
[11]
  DosR DMSO/DosR HC103A Fold change: 2.033
  log2 Fold change: 1.023
Gene MT3933 (Rv3825c, pks2)
  Counts per million (CPM) DosR_HC103A1: 917.6 CPM
  Counts per million (CPM) DosR_HC103A2: 561 CPM
[12]
  DosR DMSO/DosR HC103A Fold change: 2.341
  log2 Fold change: 1.227
